Patent US20060110376A1, “MDA-7 and free radicals in the treatment of cancer” (priority 2002, published 2006)

Experiments:
[1] = tested on: RCC cell lines A498 and UOK121N; assay: MTT cell growth assay; type: cell-based, human; details: As2O3 0.5 μM; 96 h
Description: (§1) FIG. 25A-D. GST-MDA-7 causes a dose-dependent reduction in the proliferation of renal carcinoma cells but not primary renal epithelial cells. Cells were plated in 12 well plates (˜1×10^4 cells/well) and 24 h later treated with increasing concentrations of GST and GST-MDA-7 as indicated. Cell growth was determined via MTT assay 96 h after GST-MDA-7 treatment. Data are the means of 12 wells (one plate per condition, ±SEM) from a representative experiment using different preparations of GST-MDA-7 (n=3). Panel A. UOK121N cells. Panel B. A498 cells. Panel C. Primary renal epithelial cells. Panel D. Primary rat hepatocytes were isolated and cultured as described in Methods. Four hours after plating, hepatocytes were infected with either control CMV virus or Ad.mda-7 (at a multiplicity of infection of 50). […] Cell growth was determined via MTT assay 96 h after MDA-7 treatment. […]
(§2) FIG. 27A-C. […] Cell growth was determined via MTT assay 96 h after GST-MDA-7 treatment. […]
(§3) MTT Assay for Determination of Cellular Viability. […] The cytotoxicity of the various treatments was assessed four days after irradiation by measurement of cell viability by use of the MTT assay, as described previously (McKinstry et al., 2002, Cancer Biol. Ther. 1:243-253). The plates were read on a Dynatech MR600 Microplate Reader at 540 nm. […]

[2] = tested on: primary renal epithelial cells; assay: MTT cell growth assay; type: cell-based, human; details: low concentrations, each agent alone
Description: as §1, §2, §3

[3] = tested on: A498, UOK121N and primary renal epithelial cells; assay: MTT cell growth assay, arsenic trioxide alone; type: cell-based, human
Description: FIG. 26. Arsenic trioxide causes a concentration-dependent reduction in primary and renal carcinoma cell growth. Cells were plated in 12 well plates (˜1×10^4 cells/well) and 24 h later treated with increasing concentrations of As2O3 as indicated. Cell growth was determined via MTT assay 96 h after GST-MDA-7 treatment. Data are the means of 12 wells (one plate per condition, ±SEM) from a representative experiment using separate As2O3 formulations (n=3). Arsenic trioxide caused a dose-dependent enhancement in cell killing at higher concentrations >10 μM.
MTT Assay for Determination of Cellular Viability. The MTT test is based on the enzymatic reduction of the tetrazolium salt MTT in living, metabolically active cells but not in dead cells. Cells were plated (5-10,000 cells per well of a 12 well plate) and 24 h after plating treated with either GST or GST-MDA-7 at the indicated concentrations. Thirty minutes after protein treatment, cells were treated with arsenic trioxide at the indicated concentrations. The cytotoxicity of the various treatments was assessed four days after irradiation by measurement of cell viability by use of the MTT assay, as described previously (McKinstry et al., 2002, Cancer Biol. Ther. 1:243-253). The plates were read on a Dynatech MR600 Microplate Reader at 540 nm. […]

[4] = tested on: normal cells (immortalized human astrocytes or melanocytes); assay: MTT viability assay; type: cell-based; details: Ad.mda-7 100 p.f.u./cell
Description: MTT Viability Assays. Cell viability was assessed by MTT assays as described (Lebedeva et al., 2000, Cancer Research 60:6052-6060). Briefly, cells were seeded in 96-well tissue culture plates (1.5×10^3 cells per well) and treated with various agents. At the indicated times, medium was removed, and fresh medium containing 0.5 mg/ml MTT was added to each well. The cells were incubated at 37° C. for 4 h and then an equal volume of solubilization solution (0.01N HCl in 10% SDS) was added to each well and mixed thoroughly. The optical density from the plates was read on a BioRad Microplate Reader Model 550 at 595 nm.

[5] = tested on: renal carcinoma cells (UOK121N, A498); assay: Clonogenic survival assay; type: cell-based, human; details: arsenic trioxide (0.5 μM) alone
Description: Panel A. UOK121N cells. Panel B. A498 cells. Cells were plated in 6 well plates (˜5×10^4 cells/well) and 24 h later treated with GST, GST-MDA-7 (both 0.5 nM) and As2O3 (0.5 μM) as indicated. Cells were isolated 96 h after GST-MDA-7 treatment and cell viability determined using trypan blue exclusion assay (see FIG. 28). Based on trypan blue negative viable cell values, 250, 500 and 2000 viable cells were re-plated in Linbro plates. The plating density for colony formation assays depended upon the prior treatment of the cells and data obtained in FIGS. 27 and 28. 10-14 days after plating, cells were fixed and stained with crystal violet. Colony formation was determined using visual counting, and a colony was defined as a group of >50 cells. Data are the means of 3 separate experiments (±SEM). * p<0.05 less than control cells; # p<0.05 less than As2O3 or GST-MDA-7 treated cells.
Cell Survival Analyses. Cells were assayed for the effect(s) of GST-MDA-7 and arsenic trioxide on cell survival. Cells were plated (10,000 cells per 60 mm dish) and 24 h after plating treated with GST-MDA-7 or GST. Thirty minutes later, cells were treated with arsenic trioxide. Ninety-six hours later, cells were isolated by trypsinization and viable trypan blue negative cells re-plated in 60 mm dishes at 250-1,000 cells per plate. […] Colonies that contain more than 50 cells were then counted. […]

Substance: arsenic trioxide
- effect of arsenic trioxide on growth suppression by GST-MDA-7 [1]: enhanced the growth suppressive effects of GST-MDA-7
- growth potential [2]: Neither low concentrations of arsenic trioxide nor GST-MDA-7 alone altered the growth potential
- concentrations giving dose-dependent enhancement in cell killing [3]: > 10 µM
- concentration above which proliferation was dose-dependently reduced ([3]; 96 h): above 1 μM
- growth, combinational treatment with Ad.mda-7 [4]: does not affect growth of normal cells
- clonogenicity [5]: significantly reduced clonogenicity
